From publication PMC10525890, “Selective Inhibition of Cardiac Late Na^+ Current Is Based on Fast Offset Kinetics of the Inhibitor” (Biomedicines, 2023)
Where “and” joins values, the source holds several entries; their conditions need not be identical. Equal values may be shown once.

Assays:
late Na+ current (INaL) [1] = experiment: INaL dissected by drug under action potential voltage clamp (APVC) in isolated ventricular myocytes; format: cell-based, canine; settings: cycle length 700 ms, 37 °C, 1 µM GS967, 20 µM mexiletine, 10 µM quinidine, mean ± SEM
Method: (§1) Single canine ventricular myocytes were isolated using a segment perfusion technique, as previously described. Briefly, the LAD coronary artery was cannulated and used for supplying solutions required for the dissociation of the individual cells with minimal injury. After dissection, the tissue was first perfused with a nominally Ca^2+-free solution (Minimum Essential Medium Eagle, Joklik Modification, Sigma-Aldrich Co., St. Louis, MO, USA) for 5 min in order to reduce the Ca^2+ load and also to promote the uncoupling of cell-to-cell junctions. Following this, the perfusate was supplemented with 1 mg/mL collagenase (Type II, final activity of 224 U/mL, Worthington Biochemical Co., Lakewood, NJ, USA) and 0.2% bovine serum albumin (Fraction V., Sigma) in the presence of 50 µM Ca^2+. This step was applied for 30 min to digest the collagen fibers in the extracellular matrix, resulting in the release of individual cells. […] The cells were kept at 15 °C before use, allowing normalization of their intracellular ionic composition. All chemicals applied in these experiments were purchased from Sigma-Aldrich Co. (St. Louis, MO, USA).
(§2) The cells, studied by an inverted microscope, were continuously superfused with a modified Tyrode at a rate of 1–2 mL/min. The modified Tyrode solution contained (in mM): NaCl: 121; KCl: 4; CaCl2: 1.3; MgCl2: 1; HEPES: 10; NaHCO3: 25; glucose: 10; pH: 7.35; osmolarity: 300 ± 3 mOsm. The temperature of this perfusate was set to 37 °C with a temperature controller (Cell MicroControls, Norfolk, VA, USA). Electrical signals were generated, amplified and recorded using a MultiClamp 700A or 700B amplifier under the control of pClamp 10 software (Molecular Devices, Sunnyvale, CA, USA) after analogue-to-digital conversion (Digidata 1440A or 1332, Molecular Devices). The electrodes were manufactured from borosilicate glass. The tip resistance of these micropipettes ranged between 2 and 3 MΩ when filled with pipette solution. Ion currents were recorded under whole-cell voltage clamp conditions. The series resistance was typically 4–8 MΩ. The measurement was discarded when the series resistance changed substantially during the experimental period.
APVC experiments were performed according to the methods described previously. This technique allows for the visualization of various ion currents flowing during an actual ventricular AP by using a selective inhibitor of the respective ion current. In these experiments, therefore, a midmyocardial canine ventricular AP was applied as a command signal. The current traces were continuously recorded before and after a 5 min superfusion with the applied Na^+ channel inhibitor. The drug-sensitive current was obtained by subtracting the post-drug trace from the reference pre-drug trace. When measuring INaL, the external solution was supplemented with 1 µM nisoldipine, 1 µM E4031 and 100 µM chromanol 293B, in order to eliminate contaminations by Ca^2+ and K^+ currents. The pipette solution contained (in mM): K-aspartate, 120; KCl, 30; MgATP, 3; HEPES, 10; Na2-phosphocreatine, 3; EGTA, 0.01; cAMP, 0.002; KOH, 10; at pH = 7.3; osmolarity of 285 mOsm. The amplitude of INaL was measured at 50% duration of the APD90 value of the command AP. The initial 20 ms period following the AP upstroke was excluded from evaluation when determining the current integral in order to eliminate the contribution of INaP. A total of 20 consecutive current traces were averaged and analyzed in each experiment to reduce the noise and the trace-to-trace fluctuations of the AP configuration. Ion currents were normalized to cell capacitance, determined by applying a short (15 ms) hyperpolarizing pulse from +10 mV to −10 mV.

late Na+ current (INaL) [2] = experiment: INaL under conventional voltage clamp (2 s pulses to −20 mV from −120 mV) in isolated ventricular myocytes; format: cell-based, canine; settings: for inhibition of INaL current integral: 1 µM GS967, 20 µM mexiletine, 10 µM quinidine; for inhibition of INaL density: at 50 ms, 1 µM GS967 (n = 6), 20 µM mexiletine (n = 5), 10 µM quinidine (n = 6); for INaL current integral (charge carried), post-drug: initial 20 ms excluded, 1 µM GS967 (pre-drug −69.1 ± 7.9), 20 µM mexiletine (pre-drug −68.6 ± 6.2), 10 µM quinidine (pre-drug −68.2 ± 11.7); for INaL density at 50 ms after start of pulse, post-drug: −20 mV from −120 mV, 1 µM GS967 (pre-drug −0.313 ± 0.035), 20 µM mexiletine (pre-drug −0.337 ± 0.035), 10 µM quinidine (pre-drug −0.333 ± 0.043)
Method: as §1, §2
Rectangular command pulses were applied in conventional voltage clamp experiments to study the effects on INaL at stable test potentials, as described previously. The cells were perfused with HEPES-buffered Tyrode solution containing (in mM): NaCl, 144; NaH2PO4, 0.4; KCl, 4.0; CaCl2, 1.8; MgSO4, 0.53; glucose, 5.5; HEPES, 5.0; at pH = 7.4. This solution contained 1 µM nisoldipine, 0.5 µM HMR-1556 and 0.1 µM dofetilide in order to block the Ca^2+ and K^+ currents. The pipette solution contained (in mM): CsCl, 125; TEACl, 20; MgATP, 5; EGTA, 10; HEPES, 10; at pH = 7.2. Test pulses of 2 s duration were clamped to −20 mV from the holding potential of −120 mV. The total amount of INaL was determined by pharmacological subtraction using a final superfusion with 20 µM TTX. The amplitude of INaL was determined at 50 ms following the start of the pulse. When measuring the charge carried by INaL (integral), the initial 20 ms of the current was excluded from evaluation to minimize the contamination with INaP.

[3] = tested on: peak Na+ current (INaP) estimated as V+max; experiment: Steady-state V+max of action potential upstroke (indicator of INaP), right ventricular papillary muscle, sharp microelectrode; format: cell-based, canine; settings: 1 µM GS967, 20 µM mexiletine, 10 µM quinidine; for V+max block: cycle length 700 ms; for cycle lengths at which V+max was significantly reduced: cycle lengths 0.3-5 s tested
Method: (§3) Right ventricular papillary muscles were applied for AP recordings using the conventional sharp microelectrode technique, as described previously. Membrane potential changes were recorded at 37 °C using sharp microelectrodes filled with 3 M KCl (tip resistance 10–20 MΩ) and connected to the input of an amplifier (MDE GmbH, Heidelberg, Germany). The preparations were stimulated with current pulses having durations of 1 ms and amplitudes of 200% diastolic threshold using a pair of platinum electrodes. Before starting the experiment, the preparations were paced at a cycle length of 1 s for at least 60 min allowing equilibration. After this period, the cycle length was sequentially changed between 0.3 and 5 s and the 25th AP was recorded at each cycle length. […] APs were sampled at 100 kHz with an ADA 3300 data acquisition board (Real Time Devices Inc., State Collage, PA, USA) and stored for later analysis.

[4] = tested on: peak Na+ current (INaP) estimated as V+max; experiment: Offset kinetics: restitution of V+max with extra stimuli after 1 Hz trains; format: cell-based, canine; settings: monoexponential fit, basic cycle length 1 s; 1 µM GS967, 20 µM mexiletine
Method: as §3

[5] = tested on: peak Na+ current (INaP) estimated as V+max; experiment: Onset kinetics of V+max block during 2.5 Hz train after 1 min rest; format: cell-based, canine; settings: initial 40 APs, 1 µM GS967, 20 µM mexiletine, 10 µM quinidine
Method: as §3
The onset kinetics of drug action on V^+max were determined by stimulating the preparation at a short cycle length of 0.4 s following a 1 min period of rest and the initial 40 APs were recorded. The V^+max values of the consecutive APs were plotted as a function of the number of the AP within the train. The onset rate constant was determined by fitting the consecutive V^+max values to a monoexponential function.

Nav1.8 = settings: stated in discussion, no reference given; cited from earlier work
Nav2.1 = settings: stated in discussion, no reference given; cited from earlier work
Nav1.1 = tested on: Nav1.1; parameters: method as in PMID 31730442; settings: cited from earlier work
Nav1.5 = tested on: Nav1.5; parameters: method as in PMID 27136942, PMID 32938719; settings: cited from earlier work
INaL over INaP = settings: cited from earlier work

FC(F)(F)Oc1ccc(-c2ccc3nnc(C(F)(F)F)n3c2)cc1 [GS967]
drug-sensitive INaL current density measured at 50% duration of APD90 of the command AP (late Na+ current (INaL) [1]): −0.37 ± 0.07 A/F | drug-sensitive INaL current integral (initial 20 ms excluded) (late Na+ current (INaL) [1]): −56.7 ± 9.1 mC/F | inhibition of INaL current integral (late Na+ current (INaL) [2]): 79.0% | inhibition of INaL density (late Na+ current (INaL) [2]): 80.4 ± 2.2% | INaL current integral (charge carried), post-drug (late Na+ current (INaL) [2]): −15.4 ± 3.9 mC/F | INaL density at 50 ms after start of pulse, post-drug (late Na+ current (INaL) [2]): −0.062 ± 0.01 A/F | V+max block [3]: 2.3% | cycle lengths at which V+max was significantly reduced [3]: < 500 ms | offset time constant (recovery of V+max) [4]: 110 ± 6 ms | onset rate constant of V+max block [5]: 6.4 ± 0.9 AP and 5.3±0.8 AP | inhibition of Nav1.8 (Nav1.8): does not inhibit | inhibition of Nav2.1 (Nav2.1): does not inhibit | sensitivity of neuronal Nav1.1 (Nav1.1): sensitive | block of cardiac Nav1.5 channel isoform (Nav1.5): strongly block

C=C[C@H]1C[N@@]2CC[C@H]1C[C@@H]2[C@@H](O)c1ccnc2ccc(OC)cc12 [quinidine]
drug-sensitive INaL current density measured at 50% duration of APD90 of the command AP (late Na+ current (INaL) [1]): −0.377 ± 0.06 A/F | drug-sensitive INaL current integral (initial 20 ms excluded) (late Na+ current (INaL) [1]): −61.2 ± 8.8 mC/F | inhibition of INaL current integral (late Na+ current (INaL) [2]): 37.1% | inhibition of INaL density (late Na+ current (INaL) [2]): 43.3 ± 2.2% | INaL current integral (charge carried), post-drug (late Na+ current (INaL) [2]): −42.9 ± 9.2 mC/F | INaL density at 50 ms after start of pulse, post-drug (late Na+ current (INaL) [2]): −0.186 ± 0.02 A/F

COc1ccccc1OCC(O)CN1CCN(CC(=O)Nc2c(C)cccc2C)CC1 (stereo not drawn) [ranolazine]
selectivity for INaL over INaP (INaL over INaP): 38 fold

O=C(NCC1CCCCN1)c1cc(OCC(F)(F)F)ccc1OCC(F)(F)F (stereo not drawn) [flecainide]
selectivity for INaL over INaP (INaL over INaP): 3 fold

Cc1cccc(C)c1OCC(C)N (stereo not drawn) [mexiletine]
drug-sensitive INaL current density measured at 50% duration of APD90 of the command AP (late Na+ current (INaL) [1]): −0.375 ± 0.07 A/F | drug-sensitive INaL current integral (initial 20 ms excluded) (late Na+ current (INaL) [1]): −65.2 ± 11.5 mC/F | inhibition of INaL current integral (late Na+ current (INaL) [2]): 46.1% | inhibition of INaL density (late Na+ current (INaL) [2]): 41.9 ± 3.7% | INaL current integral (charge carried), post-drug (late Na+ current (INaL) [2]): −37.0 ± 4.7 mC/F | INaL density at 50 ms after start of pulse, post-drug (late Na+ current (INaL) [2]): −0.197 ± 0.026 A/F | V+max block [3]: 11.4% | cycle lengths at which V+max was significantly reduced [3]: < 700 ms | offset time constant (recovery of V+max) [4]: 456 ± 284 ms | onset rate constant of V+max block [5]: 3.4 ± 0.4 AP

CCCCc1oc2ccccc2c1C(=O)c1cc(I)c(OCCN(CC)CC)c(I)c1 [amiodarone]
selectivity for INaL over INaP (INaL over INaP): 13 fold
